# Source: patent US7772240B2, “Trans-1(6-chloro-3-phenylindan-1-yl)-3,3-dimethylpiperazine” (H. Lundbeck A/S, priority 2003, dated 2010)
# Tests used:
# D1/D2 = details: cited from earlier work
# D1 and D2 = details: cited from earlier work
# 5-HT2 = details: cited from earlier work
# α1 adrenoceptors = details: cited from earlier work
# human CYP2D6 = target: T1, human CYP2D6 (Homo sapiens, UniProt P10635); test: CYP2D6 inhibitor assay (recombinant microsomes, AMMC substrate); assay type: in vitro ADME; details: result in words
# T1 construct: purchased BD Biosciences (Gentest) 456217; host or cells: baculovirus/insect cells
# Experimental: Principle: The inhibition of human CYP2D6 is assessed using microsomes prepared from baculovirus/insect cells cDNA expressing CYP2D6 as enzyme sources and the specific CYP2D6 substrate AMMC (3-[2-(N,N-diethyl-N-methylammonium)-ethyl]-7-methoxy-4-methylcoumarin). AMMC is O-demethylated to AHMC (3-[2-(N,N-diethylamino)ethyl]-7-hydroxy-4-methylcoumarin) which is detected by measuring appearance of fluorescence.
# Microsomes prepared from baculovirus/insect cells cDNA expressing CYP2D6 were obtained from BD Biosciences (Gentest 456217). Fluorescence measured Ex. (405 nm) Em. (465 nm) by a SpectroFluor Plus Plate Reader (Tecan Nordic). Incubations with the recombinant CYP2D6 micrsomes contained 1.5 pmol of the recombinant CYP2D6 in 0.2 ml total volume 100 mM phosphate buffer at pH 7.4 containing […] AMMC (3-[2-(N,N-diethyl-N-methylammonium)-ethyl]-7-methoxy-4-methylcoumarin) with a low NADPH-regenerating system consisting of 0.0082 mM NADP^+, 0.41 mM glucose 6-phosphate, 0.41 mM magnesium chloride and 0.4 units/ml glucose-6-phoshate dehydrogenase. The incubation time was 45 min and the incubations were quenched by addition of 0.075 ml 80% Acetonitrile 20% 0.5 M Tris base. All chemicals were of analytical grade from Sigma (St. Louis, Mo.). […] The IC50 values were calculated by linear interpolation.
# human D2 receptor [1] = target: T2, human D2 receptor (Homo sapiens, UniProt P14416); test: DA D2 receptor binding ([3H]-Spiperone)
# T2 construct: expressed in transfected cells; host or cells: CHO cells
# Experimental: (§1) For all assays: Results are expressed as percent inhibition of control specific binding and the IC50 values (concentration causing a half-maximal inhibition of control specific binding) are determined by non-linear regression analysis using Hill equation curve fitting. The inhibition constants (Ki) were calculated from the Cheng Prusoff equation Ki=IC50/(1+(L/KD)), where L equals the concentration of radioligand in the assay) and KD equals the affinity of the radioligand for the receptor.
# CHO cells expressing approximately 800 fmol/mg human recombinant D2 receptors were generated standard stable transfection techniques. […] Total binding was determined in the presence of buffer and non-specific binding was determined in the presence of 10 μM haloperidol. The mixture was incubated for 30 minutes at 37° C., cooled briefly on ice. Bound and free radioactivity was separated by vacuum filtration on GF/C filters pretreated with 0.1% Polyetyleneime (PEI) and filters were counted in a scintillation counter.
# alpha-1 adrenoceptors = test: Alpha-1 adrenoceptor binding ([3H]Prazosin); parameters: species or system rat
# Experimental: as §1
# Chinese hamster ovary (CHO) cell lines expressing rat alpha1d and Baby hamster Kidney (BHK) cells expressing bovine alpha1a were generated using standard stable transfection techniques. The Rat-1 cell line expressing the hamster alpha1b receptor was obtained from University of Utah, Salt Lake City, Utah. […] Total binding was determined using assay buffer and non-specific binding was defined in the presence of 1 μM WB-4101 for all subtypes of alpha1 receptors. […] In all assays bound and free radioactivity were separated by vacuum filtration on GF/B filters pretreated with Polyetyleneimine (PEI) and counted in a scintillation counter.
# By this method, the inhibition by drugs of the binding of [^3H]Prazosin (0.25 nM) to alpha-1 receptors in membranes from rat brain is determined in vitro. […]
# human D2 receptor [2] = target: T2, human D2 receptor; test: DA D2 efficacy assay, inhibition of D2 mediated inhibition of cAMP formation in CHO cells; assay type: cell-based
# Experimental: The ability of the compounds to inhibit the D2 receptor mediated inhibition of cAMP formation in CHO cells transfected with the human D2 receptor was measure as follows.
# Cells were seeded in 96 well plates at a concentration of 8000 cells/well 3 days prior to the experiment. On the day of the experiment the cells were washed once in preheated G buffer (1 mM MgCl2, 0.9 mM CaCl2, 1 mM IBMX in PBS) and the assay was initiated by addition of 100 μl of a mixture of 1 μM quinpirole, 10 μM forskolin and test compound in G buffer. The cells were incubated 20 minutes at 37° C. and the reaction was stopped by the addition of 100 μl S buffer (0.1 M HCl and 0.1 mM CaCl2) and the plates were placed at 4° C. for 1 hour. 68 μl N buffer (0.15 M NaOH and 60 mM NaAc) were added and the plates were shaken for 10 minutes. 60 μl of the reaction were transferred to cAMP FlashPlates (DuPont NEN) containing 40 μl 60 mM NaAc pH 6.2 and 100 μl IC mix (50 mM NaAc pH 6.2, 0.1% NaAzid, 12 mM CaCl2, 1% BSA and 0.15 μCi/ml ^125I-cAMP) were added. Following an 18-hour incubation at 4° C. the plates were washed once and counted in a Wallac TriLux counter.
# 5-HT2A receptors = target: T3, 5-HT2A receptors (Homo sapiens, UniProt P28223); test: Serotonin 5-HT2A efficacy assay (Ca2+ fluorescence, CHO cells); assay type: cell-based
# T3 construct: expressed in transfected cells; host or cells: CHO cells
# Experimental: 2 or 3 days before the experiment, CHO cells expressing 250 fmol/mg S-HT2A receptors are plated at a density sufficient to yield a mono-confluent layer on the day of the experiment. The cells are dye loaded (Ca^2+-kit from Molecular Devices and using Hank's balanced salt w/o phenol red, added 20 mM HEPES and pH adjusted to 7.4 with 2M NaOH as assaybuffer) for 60 minutes at 37° C. in a 5% CO2 incubator at 95% humidity. Lacer intensity is set to a suitable level to obtain basal values of approximately 8000-10000 fluorescence units. The variation in basal fluorescence should be less than 10%. EC50 values are assessed using increasing concentrations of test compound covering at least 3 decades. IC50 values are assessed challenging the same range of concentrations of test substances with EC85 of 5-HT. Test substances are added to the cells 5 minutes before the 5-HT. […] Maximum inhibition is the level of inhibition the curve reaches. It is expressed as the percentage inhibition at that level and used to distinguish full and partial antagonists.
# [3] = QT-interval in the alpha-chloralose anaesthetised rabbit; assay type: in vivo
# Experimental: The model described in the following was originally designed as a proarrhytmic model by Carlsson et al, [J Cardiovasc Pharmacol. 1990;16:276-85.] and has been modified to fit into screening set-up as described below under “animal preparation”.
# Male rabbits (HsdIf:NZW, outbreed) weighing 2.0-2.8 kg were purchased from Harlan (The Netherlands). Individual body weights were measured and recorded on the day of experiment. […]
# ECG, blood pressure and HR were continuously recorded on a Maclab 8/s using the Chart software v3.6.1 for the Macintosh computer. […] Effects on the electrocardiogram (PQ-, QRS-, QT-, QTc-intervals and heart rate) and mean arterial blood pressure (MAP) were recorded and measured electronically.
# human D1 receptors [4] = target: T4, human D1 receptors (Homo sapiens, UniProt P21728); test: DA D1 receptor binding ([3H]-SCH23390, Cerep); parameters: host or cells: CHO cells (membranes)
# Experimental: For all assays: Results are expressed as percent inhibition of control specific binding and the IC50 values (concentration causing a half-maximal inhibition of control specific binding) are determined by non-linear regression analysis using Hill equation curve fitting. The inhibition constants (Ki) were calculated from the Cheng Prusoff equation Ki=IC50/(1+(L/KD)), where L equals the concentration of radioligand in the assay) and KD equals the affinity of the radioligand for the receptor. Affinities towards human D1 receptors were determined at the contract laboratory Cerep using the catalog reference assay no 803-1h. Membranes from CHO cells expressing human recombinant D1 receptors were used. 0.3 nM [^3H]-SCH23390 was used as radioligand and compounds were tested in a serial dilution concurrently with the reference compound SCH23390 in order to assess the assay suitability. Aliqouts were incubates at 22° C. for 60 min and bound radioactivity are measured with a liquid scintillation counter. Specific control binding to the D1 receptors was defined as the difference between the total binding determined without compound present and the non-specific binding determined in the presence of 1 μm SCH 23390.
# human D1 receptors [5] = target: T4, human D1 receptors; test: DA D1 efficacy assay, inhibition of D1 mediated cAMP formation in CHO cells; assay type: cell-based; parameters: expressed in transfected cells; host or cells: CHO cell line generated in-house
# Experimental: The ability of the compounds to inhibit the D1 receptor mediated cAMP formation in a CHO cell line generated in-house stably expressing the human recombinant D1 receptor was measured as follows. Cells were seeded in 96-well plates at a concentration of 11000 cells/well 3 days prior to the experiment. On the day of the experiment the cells were washed once in preheated G buffer (1 mM MgCl2, 0.9 mM CaCl2, 1 mM IBMX in PBS) and the assay was initiated by addition of 100 μl of a mixture of 30 nM A68930 and test compound diluted in G buffer. The cells were incubated for 20 minutes at 37° C. and the reaction was stopped by the addition of 100 μl S buffer (0.1 M HCl and 0.1 mM CaCl2) and the plates were placed at 4° C. for 1 hour. 68 μl N buffer (0.15 M NaOH and 60 mM NaAc) was added and the plates were shaken for 10 minutes. 60 μl of the reaction were transferred to cAMP FlashPlates (DuPont NEN) containing 40 μl 60 mM NaAc pH 6.2 and 100 μl IC mix (50 mM NaAc pH 6.2, 0.1% NaAzid, 12 mM CaCl2, 1% BSA and 0.15 μCi/ml ^125I-cAMP) were added. Following an 18-hour incubation at 4° C. the plates were washed once and counted in a Wallac TrLux counter.
# T4 sequence (P21728 whole entry): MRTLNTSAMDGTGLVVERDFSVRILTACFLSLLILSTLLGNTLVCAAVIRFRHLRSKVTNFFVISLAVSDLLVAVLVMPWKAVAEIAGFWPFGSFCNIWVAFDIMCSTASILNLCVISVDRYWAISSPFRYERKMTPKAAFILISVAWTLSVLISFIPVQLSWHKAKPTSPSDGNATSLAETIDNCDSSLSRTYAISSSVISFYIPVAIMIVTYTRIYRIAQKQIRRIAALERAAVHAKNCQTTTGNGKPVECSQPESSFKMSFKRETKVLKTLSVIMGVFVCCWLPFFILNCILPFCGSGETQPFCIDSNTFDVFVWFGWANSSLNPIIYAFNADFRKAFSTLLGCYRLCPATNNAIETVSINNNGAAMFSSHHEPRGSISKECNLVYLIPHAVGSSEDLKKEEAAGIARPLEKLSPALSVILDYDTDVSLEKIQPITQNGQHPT
# T1 sequence (P10635 whole entry): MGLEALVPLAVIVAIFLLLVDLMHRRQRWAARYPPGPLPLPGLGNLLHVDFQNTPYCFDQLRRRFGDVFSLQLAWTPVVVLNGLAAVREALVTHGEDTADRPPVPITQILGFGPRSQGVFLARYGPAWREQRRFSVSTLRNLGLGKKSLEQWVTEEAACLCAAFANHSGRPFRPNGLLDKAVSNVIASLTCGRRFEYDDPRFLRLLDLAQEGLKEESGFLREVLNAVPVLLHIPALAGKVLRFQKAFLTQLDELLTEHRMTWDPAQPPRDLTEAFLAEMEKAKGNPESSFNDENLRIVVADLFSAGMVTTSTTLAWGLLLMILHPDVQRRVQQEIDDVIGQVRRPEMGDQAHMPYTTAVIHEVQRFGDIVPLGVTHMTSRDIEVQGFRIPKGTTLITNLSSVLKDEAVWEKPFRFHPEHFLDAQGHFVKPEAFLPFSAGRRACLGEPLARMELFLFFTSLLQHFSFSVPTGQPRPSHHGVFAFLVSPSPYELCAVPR
# T2 sequence (P14416 whole entry): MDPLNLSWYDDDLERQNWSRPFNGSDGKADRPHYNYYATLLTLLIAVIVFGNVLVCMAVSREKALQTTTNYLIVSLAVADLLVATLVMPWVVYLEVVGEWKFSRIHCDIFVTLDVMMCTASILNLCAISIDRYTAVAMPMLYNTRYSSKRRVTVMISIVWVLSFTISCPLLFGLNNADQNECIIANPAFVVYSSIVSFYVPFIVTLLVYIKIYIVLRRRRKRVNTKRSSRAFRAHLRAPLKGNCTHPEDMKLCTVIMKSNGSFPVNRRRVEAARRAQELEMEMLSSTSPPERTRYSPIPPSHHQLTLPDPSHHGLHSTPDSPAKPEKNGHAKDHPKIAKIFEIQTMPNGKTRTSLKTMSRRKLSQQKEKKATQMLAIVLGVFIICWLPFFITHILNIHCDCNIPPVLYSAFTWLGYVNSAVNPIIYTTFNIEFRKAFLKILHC
# T3 sequence (P28223 whole entry): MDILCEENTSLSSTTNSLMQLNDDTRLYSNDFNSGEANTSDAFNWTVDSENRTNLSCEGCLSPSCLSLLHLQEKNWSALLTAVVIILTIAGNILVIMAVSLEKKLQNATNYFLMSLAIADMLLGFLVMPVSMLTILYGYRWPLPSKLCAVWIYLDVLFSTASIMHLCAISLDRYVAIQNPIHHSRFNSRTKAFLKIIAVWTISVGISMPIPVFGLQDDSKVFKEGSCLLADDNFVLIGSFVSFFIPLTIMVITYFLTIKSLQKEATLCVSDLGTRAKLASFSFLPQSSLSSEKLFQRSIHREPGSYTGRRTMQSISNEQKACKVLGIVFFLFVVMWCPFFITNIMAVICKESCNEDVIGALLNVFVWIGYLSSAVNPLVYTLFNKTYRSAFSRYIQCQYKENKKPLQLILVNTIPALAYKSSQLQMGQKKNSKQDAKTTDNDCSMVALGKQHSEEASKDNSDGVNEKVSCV
SMILES,D1/D2 antagonism in vitro (D1/D2),D1 and D2 antagonism in vivo (D1 and D2),5-HT2 antagonism (5-HT2),affinity for α1 adrenoceptors (α1 adrenoceptors),inhibition of CYP2D6 (human CYP2D6),affinity for dopamine D2 receptors (human D2 receptor [1]),affinity for alfa1 adrenoceptors (alpha-1 adrenoceptors),functional activity at dopamine D2 receptors (human D2 receptor [2]),functional activity at serotonin 5-HT2a receptors (5-HT2A receptors),prolonging effect on the QT-interval in the electrocardiogram (ECG) [3],affinity for dopamine D1 receptors (human D1 receptors [4]),functional activity at dopamine D1 receptors (human D1 receptors [5])
CN1CCN([C@@H]2C[C@@H](c3ccccc3)c3ccc(Cl)cc32)CC1(C)C [(−)-38],potent D1/D2 antagonists showing some D1 selectivity,equipotent as D1 and D2 antagonist,potent 5-H T2 antagonist,high affinity,–,–,–,–,–,–,–,–
"CC1(C)CN([C@@H]2C[C@@H](c3ccccc3)c3ccc(Cl)cc32)CCN1 (racemic) [racemate of the compound of the present invention, trans-1-(6-chloro-3-phenylindan-1-yl)-3,3-dimethylpiperazine]",–,–,–,–,considerable more potent,–,–,–,–,–,–,–
"CC1(C)CN([C@@H]2C[C@@H](c3ccccc3)c3ccc(Cl)cc32)CCN1 [Compound I, trans-1-((1R,3S)-6-chloro-3-phenylindan-1-yl)-3,3-dimethylpiperazine]",–,–,–,–,relatively weak inhibitor,high affinity,high affinity,antagonist,antagonist,relatively low prolonging effect,high affinity,antagonist
